Experimental data: patent US4657907A, “Low dosage compositions of finely pulverized 2,4-diamino-6-(2,5-dichlorophenyl)-1,3,5-triazine and pharmaceutically acceptable acid addition salts thereof and administration thereof” (Nippon Shinyaku Co., Ltd., priority 1981, dated 1987)
“And” between values parts separate entries of the source, which are not always exact repeats. Equal entries are not always repeated.

Legend:
[1] = Body weight increase inhibition on chronic oral administration; format: in vivo, rats; conditions: for body weight increase: 10 mg/kg or more per day, chronic oral, rats
Source text: A further advantage resulted from body weight increase inhibition which is one of the main side effects of the compound and salts of the present invention. […] This is a side effect of triazines of this type.
The average particle sizes were 8 microns for the compound according our copending application as compared to the same compound having an average particle diameter of 50 microns.

[2] = test system: ulcer formation induced by stress; assay: Inhibition of stress ulcer formation (immobilization-water immersion method), oral; format: in vivo, rats; conditions: for dose dependency of stress ulcer inhibition: 0.3 to 30 mg/kg
Source text: Since 50 microns is a common particle diameter in pharmaceutical preparations, it was most surprising that such significant and important advantages resulted. Inhibition activity against stress ulcer in rats of the compound and pharmaceutically acceptable acid addition salts in the finely pulverized form are set forth in Table 2.

[3] = Clinical experiments: side effects in patients; format: in vivo, humans; conditions: 4 mg group
Protocol: Clinical experiments were conducted wherein patients were given 1, 2 and 4 mg/day of 2,4-diamino-6-(2,5-dichlorophenyl)-1,3,5-triazine in separate groups. There were 133 patients participating in the group and 123 were separately analyzed (groups of 20, 46 and 57). The rate of recovery or cure of ulcers during those clinical trials over the period indicated was as follows:
Only one side effect was noted. There was an increase in transaminase (GOT and GPT) observed in one case (1.8% of the total) in the 4 mg group.

[4] = Average particle diameter after jet milling, Coulter Counter TA-II; format: physicochemical; conditions: jet mill PJM-100 NP; dispersed in physiological saline with Tween-80
Protocol: 2,4-diamino-6-(2,5-dichlorophenyl)-1,3,5-triazine and pharmaceutically acceptable acid addition salts thereof may be finely pulverized to achieve the average particle diameter of 20 microns or less by using jet Mill PJM-100NP (Nippon Newmatic MEG Co.). The pulverization is carried out by feeding 2 kg or less of the substance per hour. An average particle diameter of about 8 microns may be prepared in that manner. If necessary, auxiliary pulverizing agents such as starch, anhydrous silicic acid, etc. may be used. In measuring average particle size, the powder is dispersed in physiological saline solution containing one drop of Tween-80 with the aid of an ultrasonic homogenizer for 30 seconds and measured by Coleter Counter TA-II (Coulter Electronics Co., U.S.A.) equipped with aperture tube of 100 microns.
2,4-Diamino-6-(2,5-dichlorophenyl)-1,3,5-triazine is powdered by supplying it at a rate of not more than 2 kg/hour to a Jet Mill PJM-100 NP (Nippon Newmatic Mfg. Co.). The pulverized pharmaceutical is dispersed in a physiological saline solution containing one drop of Tween-80 by the use of ultrasonic homogenizer for 30 seconds and their particle diameter in average is measured by Coulter Counter TA-II (Coleter Eelectronics Co., USA) and the result is about 8 microns.

[5] = test system: rats; assay: Acute toxicity (LD50), intraperitoneal injection; format: in vivo; conditions: dosages up to 3000 mg/kg, average particle diameter about 8 microns
Source text: This decrease in toxicity is totally unexpected and represents a significant and important advance in the art.

[6] = test system: ulcer formation induced by stress; assay: Inhibition of stress ulcer formation (immobilization-water immersion method), oral; format: in vivo, rats; conditions: average particle diameter about 50 microns; for Inhibition Rate (stress ulcer): three repeat values
[7] = test system: ulcers; assay: Clinical experiments: rate of recovery or cure of ulcers in patients; format: in vivo, humans
Protocol: Clinical experiments were conducted wherein patients were given 1, 2 and 4 mg/day of 2,4-diamino-6-(2,5-dichlorophenyl)-1,3,5-triazine in separate groups. There were 133 patients participating in the group and 123 were separately analyzed (groups of 20, 46 and 57). The rate of recovery or cure of ulcers during those clinical trials over the period indicated was as follows: […]

[8] = 0.3 mg/kg, finely pulverized form
[9] = 1.0 mg/kg, finely pulverized form
[10] = 3.0 mg/kg, finely pulverized form
[11] = 10 mg/kg, finely pulverized form

Nc1nc(N)nc(-c2cc(Cl)ccc2Cl)n1 [Substance (II)]
body weight increase [1]: body weight increase was inhibited
improvement in body weight side effect ([1]; maleate salt according to the invention compared with maleate salt of about 50 microns): particularly dramatic
Inhibition Rate (stress ulcer) [2, 8]: 35%
Inhibition Rate (stress ulcer) [2, 9]: 51%
Inhibition Rate (stress ulcer) [2, 10]: 70%
Inhibition Rate (stress ulcer) [2, 11]: 85%
dose dependency of stress ulcer inhibition ([2]; finely pulverized form): linear dose dependency
ED50 (stress ulcer inhibition) ([2]; per os, finely pulverized form, from Table 2 data): 0.90 mg/kg

Nc1nc(N)nc(-c2cc(Cl)ccc2Cl)n1 [Substance (I), 2,4-diamino-6-(2,5-dichlorophenyl)-1,3,5-triazine]
increase in transaminase (GOT and GPT), cases ([3]; only side effect noted): one case
increase in transaminase (GOT and GPT), incidence ([3]; printed as % of the total): 1.8%
body weight increase [1]: body weight increase was inhibited
recovery of body weight ([1]; about 8 microns compared to about 50 microns): far faster
body weight increase inhibition (side effect) ([1]; average particle diameter about 8 microns): only transient and moderate
Inhibition Rate (stress ulcer) [2, 8]: 33%
Inhibition Rate (stress ulcer) [2, 9]: 45%
Inhibition Rate (stress ulcer) [2, 10]: 63%
Inhibition Rate (stress ulcer) [2, 11]: 70%
Inhibition Rate (stress ulcer) ([2]; 30 mg/kg, finely pulverized form): 85%
dose dependency of stress ulcer inhibition ([2]; finely pulverized form): linear dose dependency
activity on ulcer formation induced by stress ([2]; oral, 1 mg/kg, finely pulverized (compound of earlier invention)): effective
average particle diameter [4]: about 8 microns
lethality [5]: no rats were killed
Inhibition Rate (stress ulcer) ([6]; 0.37 mg/kg per os): 37% and 46% and 29%
Inhibition Rate (stress ulcer) ([6]; 3.72 mg/kg per os): 62% and 47% and 33%
activity on ulcer formation induced by stress ([6]; oral, 5 mg/kg): ineffective
rate of recovery or cure of ulcers ([7]; 1 mg/day, 4 weeks): 20.0%
rate of recovery or cure of ulcers ([7]; 1 mg/day, 8 weeks): 50.0%
rate of recovery or cure of ulcers ([7]; 2 mg/day, 4 weeks): 17.4%
rate of recovery or cure of ulcers ([7]; 2 mg/day, 8 weeks): 47.8%
rate of recovery or cure of ulcers ([7]; 4 mg/day, 4 weeks): 41.6%
rate of recovery or cure of ulcers ([7]; 4 mg/day, 8 weeks): 56.1%
recovery rate of ulcer improvement, degree of ulcer, effect against subjective and non-subjective symptoms ([7]; hospitalized patients, 4 mg group compared with other groups): marked superiority
